Assay results as given in patent US20260232709A1, “COMPOSITION COMPRISING MELOSIDE FOR ALLEVIATING HAIR LOSS AND IMPROVING HAIR GROWTH” (MORECHEM CO., LTD., priority 2024, published 2026).
“Also recorded” adds a separate entry of the source.

Assays:
[1] = tested on: IL-6 (Interleukin 6); assay: IL-6 expression in DHT-treated HDPC supernatant (ELISA); assay type: cell-based, human; conditions: HDPC treated with 100 μg/mL DHT, 30 or 100 ppm, 1 day, FIG. 11
Description: Specifically, the following groups were prepared: (i) a negative control group, where neither Dihydrotestosterone (DHT) nor Meloside A and L were treated on human dermal papilla cells (HDPC); (ii) an untreated group, where 100 μg/mL DHT was treated on HDPC, but neither Meloside A nor L was treated; (iii) a positive control group, where HDPC were treated with 100 μM Minoxidil or 20 μM Dexamethasone (DEX); and (iv) a treated group, where HDPC were first treated with 100 μg/mL DHT to increase IL-6 expression, and then treated with Meloside A or L at concentrations of 30 or 100 ppm, respectively, for 1 day. After preparation, the cell supernatants from HDPC of (i) to (iv) were obtained, and the increase or decrease in the expression level of IL-6 (Interleukin 6) was confirmed using an Enzyme-Linked Immunosorbent Assay (ELISA). For the analysis of expression patterns for each sample, normalization was performed based on a standard sample of IL-6, and the results are shown in FIG. 11.

[2] = tested on: reactive oxygen species (ROS); assay: DHT-induced intracellular reactive oxygen species in HDPC (DCF-DA fluorescence); assay type: cell-based, human; conditions: 30 or 100 ppm with 100 μg/mL DHT, 24 hours, FIGS. 12 and 13
Description: The intracellular reactive oxygen species inhibition effect was evaluated using human hair dermal papilla cells (HDPC). Measurement was performed by utilizing the principle that the non-fluorescent substance 2′,7′-dichlorodihydrofluorescein diacetate (DCF-DA) reacts with intracellularly generated free radicals and oxidizes into the fluorescent substance 2′,7′-dichlorofluorescein (DCF).
Human dermal papilla cells were seeded into 12-well plates at 5.5×10^4 cells/well and cultured for 24 hours in a 37° C., 5% CO2 incubator. Subsequently, samples prepared at various concentrations were treated into each well and cultured for 23 hours in a 37° C., 5% CO2 incubator. For the treated groups, Meloside A or L at 30 or 100 ppm were treated along with DHT. For control groups, HDPC treated with 100 μg/mL DHT but without Meloside A and L, and untreated HDPC (neither Meloside A or L nor DHT) were used. […] After removing DCF-DA and washing twice with PBS, images were taken every 10 minutes for 30 minutes using a fluorescence microscope at Ex 485 nm and Em 535 nm. The level of intracellular reactive oxygen species generation was measured by quantifying fluorescence intensity in […] using Image J, thereby confirming the ROS reduction efficacy of Meloside.

[3] = tested on: Vascular Endothelial Growth Factor (VEGF); assay: VEGF expression in HDPC supernatant (ELISA); assay type: cell-based, human; conditions: 30 or 100 ppm, 1 day, FIG. 8
Description: HDPC were treated with Meloside A or L at concentrations of 30 or 100 ppm, respectively, for 1 day to obtain the cell supernatant. For comparison, HDPC that were not treated with either Meloside A or L were used as the negative control group, and HDPC treated with 100 μM Minoxidil were used as the positive control group.
The increase or decrease in VEGF expression level in the obtained cell supernatant was confirmed through an Enzyme-Linked Immunosorbent Assay (ELISA) method, and the results are shown in FIG. 8.

[4] = tested on: dermal papilla cells (HDPC); assay: Protection against DKK1-induced death of dermal papilla cells (CCK-8); assay type: cell-based, human; conditions: 30 or 100 ppm for 1 day, then DKK1, FIG. 10
Description: Specifically, HDPC were treated with Meloside A or L at concentrations of 30 or 100 ppm, respectively, for 1 day, and then cell death was induced with DKK1 (dickkopf WNT signaling pathway inhibitor 1). For comparison, HDPC that were neither treated with Meloside A or L nor with DHT were used as the negative control group. HDPC treated with DHT but without Meloside A and L were used as the untreated group. HDPC treated with 100 μM Minoxidil or 5 mM NAC followed by DHT treatment were used as the positive control group.
CCK-8 (Cell Counting Kit-8, Dojindo, EU) reagent was added to the HDPC according to the manufacturer's protocol, and absorbance was measured at a wavelength of 450 nm using a microplate reader (BioTeK, USA) to confirm the cell viability of dermal papilla cells because of Meloside treatment, compared to the negative control group (treated with DMEM instead of Meloside A or L).

[5] = tested on: human outer root sheath cells (ORS); assay: Cytotoxicity / growth-proliferation of outer root sheath cells (CCK-8); assay type: cell-based; conditions: 10, 30, 50, 100 ppm, 1 day, CCK-8, 450 nm, FIG. 2
Description: Human Hair Outer Root Sheath Cells (ORS), used in the test examples described below, were cultured in culture plates coated with Poly-L-Lysine, using Mesenchymal Stem Cell Medium (MSCM, ScienCell) supplemented with 5% Fetal Bovine Serum (FBS, ScienCell), 1% Mesenchymal stem cell growth supplement (MSCGS, ScienCell), and antibiotics (Penicillin-Streptomycin, ScienCell) as the culture medium, in an incubator at 37° C., 5% CO2, and humid conditions.
Specifically, after treating human dermal papilla cells (HDPC) or human outer root sheath cells (ORS) with Meloside A or Meloside L at concentrations of 10, 30, 50, and 100 ppm for 1 day, CCK-8 (Cell Counting Kit-8, Dojindo, EU) reagent was added to the treated HDPC according to the manufacturer's protocol. Absorbance was then measured at a wavelength of 450 nm using a microplate reader (BioTeK, USA), and the extent of HDPC growth/proliferation by Meloside treatment was compared and confirmed against the negative control group (treated with DMEM instead of Meloside A or L).

| SMILES | IL-6 expression level [1] | reactive oxygen species (ROS) generation [2] | VEGF expression level [3] | cell protective effect against DKK1 (cell viability) [4] | cell growth/proliferation (cytotoxicity) of ORS vs negative control [5] |
| --- | --- | --- | --- | --- | --- |
| O=c1cc(-c2ccc(O)cc2)oc2cc(O)c([C@@H]3O[C@H](CO)[C@@H](O)[C@H](O)[C@H]3O[C@@H]3O[C@H](CO)[C@@H](O)[C@H](O)[C@H]3O)c(O)c12 [Meloside A, isovitexin 2″-O-glucoside] | decrease in IL-6 expression | reduction in reactive oxygen species (ROS) generation | increase in VEGF expression; also recorded: superior to that of Meloside L | cell protective effect against DKK1 was confirmed | comparable levels of cell growth/proliferation to the negative control group |
| O=c1cc(-c2ccc(O)c(O)c2)oc2cc(O)c([C@@H]3O[C@H](CO)[C@@H](O)[C@H](O)[C@H]3O[C@@H]3O[C@H](CO)[C@@H](O)[C@H](O)[C@H]3O)c(O)c12 [Meloside L, isoorientin 2″-O-glucoside] | no IL-6 expression reduction effect was observed | reduction in reactive oxygen species (ROS) generation | increase in VEGF expression | no cell protective effect against DKK1 was observed | comparable levels of cell growth/proliferation to the negative control group |
